Molecules are shown by their SMILES.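 Method: 48-hour compound exposure of cells in 96-well plates, five concentrations, linear interpolation of endpoints. Abbreviation: GI50, concentration required for 50% inhibition of growth.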 Activity calls are given as the source filed them. Rule as the data show it: active = GI50 up to about 1.1 µM and inactive = higher.

The record followed here is ChEMBL document CHEMBL1201862, “PubChem BioAssay data set” (2004).

Common to all, as to assay: NCI anticancer screen, dose series, 48 h
Assay [1] deals with A498.
Assay [2] relates to ACHN.
Assay [3] concerns CAKI-1.
For assay [4], the system named is HCC 2998.
Assay [5] relates to HCT-15.
Assay [6] deals with HOP-92.
Assay [7] concerns K562.
The subject of assay [8] is KM12.
For assay [9], the system named is M14.
In assay [10] the test system is MDA-MB-231.
Assay [11] relates to MOLT-4.
The subject of assay [12] is Malme-3M.
Assay [13] concerns NCI-H23.
Assay [14] relates to OVCAR-3.
Assay [15] concerns OVCAR-5.
In assay [16] the test system is SK-MEL-2.
For assay [17], the system named is SN12C.
For assay [18], the system named is SNB-19.
Assay [19] has as its system SW-620.
In assay [20] the test system is UACC-62.

With `Nc1nc(Cl)cc(Oc2ccc(Cl)cc2)n1`, the GI50 in [1] is > 47.5 µM (inactive); in [2] it was 31.4 µM (inactive); in assay [3], 44.6 µM (inactive); in assay [4], > 55.2 µM (inactive); in [5], over 57.4 µM; in [6], 23.2 µM (inactive). Also, the GI50 in assay [7] was > 55.8 µM (inactive); in assay [8], > 100 µM (inactive); in assay [9], > 57 µM (inactive); in assay [10] it was > 56.1 µM (inactive); in assay [11], > 60.5 µM (inactive); in assay [12], 34.3 µM (inactive). Besides, the GI50 is 29.5 µM (inactive) in [13]; > 56.4 µM (inactive) in assay [14]; > 56.1 µM (inactive) in [15]; > 100 µM (inactive) in [16]; > 51.9 µM (inactive) in [17]; > 53.7 µM (inactive) in [18]. Also, the GI50 in assay [19] is > 58.6 µM (inactive); in assay [20], 29.9 µM (inactive).

For the compound `Cc1cc(C)c2c(c1)C/C(=C\c1cccc(C)c1C(=O)O)C2=O`, the GI50 in [1] is 63.1 µM (inactive); in assay [2], 87.7 µM (inactive); in assay [3], > 100 µM (inactive); in [4], 66.5 µM (inactive); in [5] it was 49.5 µM; in [6], > 100 µM (inactive). Besides, the GI50 is 31.1 µM (inactive) in assay [7]; 51.6 µM (inactive) in [8]; 88.9 µM (inactive) in assay [9]; 36.1 µM (inactive) in assay [10]; 50.5 µM (inactive) in assay [11]; 58.1 µM (inactive) in assay [12]. Also, the GI50 in [13] is 63.2 µM (inactive); in assay [14], 54.5 µM (inactive); in assay [15] it was 99.5 µM (inactive); in [16] it was 89.9 µM (inactive); in assay [17], 42.6 µM (inactive); in assay [18], 59.6 µM (inactive). For the same compound, the GI50 in [19] was 64.4 µM (inactive); in assay [20], 47.8 µM (inactive).

For the compound `O=C(/C=C/c1cccc(Br)c1)c1ccc(Cl)cc1`, the GI50 in assay [1] is 13.3 µM (inactive); in [2] it was 16.8 µM (inactive); in assay [3], 14 µM (inactive); in assay [4] it was 18.8 µM (inactive); in assay [5], 14.8 µM; in assay [6], 15 µM (inactive). Also, the GI50 in [7] is 6.58 µM (inactive); in assay [8] it was 11.8 µM (inactive); in [9] it was 14.6 µM (inactive); in assay [10], 18 µM (inactive); in assay [11], 5.93 µM (inactive); in [12], 14 µM (inactive). Besides, the GI50 is 17 µM (inactive) in [13]; 16.7 µM (inactive) in assay [14]; 15.6 µM (inactive) in [15]; 15.3 µM (inactive) in assay [16]; 17.2 µM (inactive) in assay [17]; 16.3 µM (inactive) in assay [18]. Also, the GI50 in assay [19] is 2.95 µM (inactive); in assay [20] it was 14.8 µM (inactive).

With `COc1ccc(N2C(=O)C3c4[nH]c5ccccc5c4C4C(C)CCCC4C3C2=O)cc1` (stereo not given), the GI50 in assay [1] was 45.5 µM (inactive); in assay [2] it was 47.8 µM (inactive); in assay [3], 36.1 µM (inactive); in [4] it was > 100 µM (inactive); in assay [5], over 34 µM; in assay [6], 35.1 µM (inactive). Moreover, the GI50 is 9.14 µM (inactive) in [7]; 13.8 µM (inactive) in [8]; > 41.5 µM (inactive) in [9]; 20.4 µM (inactive) in assay [10]; 7.21 µM (inactive) in [11]; 8.69 µM (inactive) in assay [12]. Further, the GI50 in assay [13] is 54.7 µM (inactive); in assay [14] it was 26.1 µM (inactive); in assay [15], > 63.8 µM (inactive); in assay [16] it was 44.6 µM (inactive); in [17], 40.9 µM (inactive); in assay [18] it was > 44.6 µM (inactive). For the same compound, the GI50 in [19] was > 53 µM (inactive); in assay [20], 48.8 µM (inactive).

Take `Nc1nc(-c2ccccc2)cc(-c2ccc(OCc3ccccc3)cc2O)n1`: the GI50 is 60.3 µM (inactive) in assay [1]; 31.3 µM (inactive) in assay [2]; 57.1 µM (inactive) in assay [3]; 34.4 µM (inactive) in [4]; 32.2 µM in assay [5]; 38.7 µM (inactive) in assay [6]. Besides, the GI50 in [7] is 43 µM (inactive); in assay [8], 34.4 µM (inactive); in [9] it was 30.8 µM (inactive); in assay [10] it was 70.3 µM (inactive); in [11], 48.4 µM (inactive); in assay [12] it was 24.2 µM (inactive). Besides, the GI50 is 38.3 µM (inactive) in [13]; 26.7 µM (inactive) in assay [14]; > 100 µM (inactive) in assay [15]; 32.4 µM (inactive) in [16]; 76.9 µM (inactive) in assay [17]; 50.2 µM (inactive) in [18]. Moreover, the GI50 was 39.4 µM (inactive) in assay [19] and 64.7 µM (inactive) in assay [20].

For `CC1CCCC(C(=O)CC2CC(=O)NC(=O)C2)C1=O` (stereo not given), the GI50 in assay [1] is > 100 µM (inactive); in assay [2], > 100 µM (inactive); in assay [3] it was > 100 µM (inactive); in assay [4], > 100 µM (inactive); in assay [5], over 100 µM; in [6], > 100 µM (inactive). The GI50 in assay [7], in assay [8], in assay [9], in [10], in [11] and in [12] was > 100 µM (inactive) throughout. Also, the GI50 in assay [13], in assay [14], in [15], in [16], in assay [17] and in [18] was > 100 µM (inactive) each time. In addition, the GI50 in assay [19] and in assay [20] was > 100 µM (inactive) throughout.

In the case of `CCCCC[C@@H]1OC(=O)[C@@]2(CC3c4ccccc4C2c2ccccc23)[C@H]1C(=O)OC`, the GI50 in assay [1] is 13.4 µM (inactive); in assay [2], 45.5 µM (inactive); in assay [3], 42.6 µM (inactive); in assay [4], 23.6 µM (inactive); in assay [5], 29.9 µM; in assay [6], > 100 µM (inactive). Also, the GI50 in assay [7] was 15.8 µM (inactive); in [8] it was 45.7 µM (inactive); in assay [9], 55.2 µM (inactive); in assay [10] it was > 100 µM (inactive); in assay [11], > 10 µM (inactive); in assay [12], 53.2 µM (inactive). Also, the GI50 in [13] was 21.9 µM (inactive); in [14], 92.5 µM (inactive); in [15] it was > 100 µM (inactive); in assay [16], 28.4 µM (inactive); in [17], 74.3 µM (inactive); in assay [18] it was > 100 µM (inactive). The GI50 in [19] was 52 µM (inactive); in assay [20], 9.29 µM (inactive).

In the case of `NC(=O)[C@H](Cc1ccc(O)cc1)NC1=C(Cl)C(=O)c2c(O)ccc(O)c2C1=O`, the GI50 in [1] is 4.4 µM (inactive); in assay [2], 2.67 µM (inactive); in [3] it was 2.37 µM (inactive); in [4], 2.37 µM (inactive); in assay [5], 1.79 µM; in assay [6] it was 2.13 µM (inactive). For the same compound, the GI50 is 1.45 µM (inactive) in assay [7]; 2.67 µM (inactive) in assay [8]; 3.14 µM (inactive) in assay [9]; 2.51 µM (inactive) in [10]; 0.55 µM (active) in assay [11]; 1.96 µM (inactive) in assay [12]. The GI50 in assay [13] was 3.26 µM (inactive); in [14], 2.14 µM (inactive); in assay [15] it was 8.89 µM (inactive); in assay [16] it was 9.02 µM (inactive); in [17] it was 3.55 µM (inactive); in assay [18] it was > 10 µM (inactive). The GI50 in assay [19] is 1.06 µM (active); in assay [20], 1.85 µM (inactive).

Regarding `O=C(/C(Cl)=C/c1ccccc1)c1ccccc1`, the GI50 in [1] is 20.6 µM (inactive); in [2], 2.24 µM (inactive); in [3], 1.7 µM (inactive); in [4] it was 6.68 µM (inactive); in assay [5], 2.47 µM; in assay [6], 3.13 µM (inactive). In addition, the GI50 in assay [7] is 2.06 µM (inactive); in assay [8] it was 4.08 µM (inactive); in assay [9], 2.28 µM (inactive); in assay [10], 5.6 µM (inactive); in [11], 2.61 µM (inactive); in assay [12], 2 µM (inactive). The GI50 in assay [13] was 11.1 µM (inactive); in assay [14], 2.21 µM (inactive); in assay [15], 4.42 µM (inactive); in assay [16], 13.1 µM (inactive); in [17] it was 1.82 µM (inactive); in [18], 15.1 µM (inactive). The GI50 in assay [19] was 1.84 µM (inactive); in assay [20] it was 8.55 µM (inactive).

Take `BC(=O)NC(CC(C)C)C(=O)NCC(=O)NC1c2ccsc2C(=O)C1O.CN(C)C` (stereo not given): the GI50 in assay [1] was > 100 µM (inactive); in assay [2], > 100 µM (inactive); in [3], > 100 µM (inactive); in [4], > 100 µM (inactive); in assay [5], over 100 µM; in [6], > 100 µM (inactive). Moreover, the GI50 was 31.6 µM (inactive) in assay [7]; > 100 µM (inactive) in assay [8]; > 100 µM (inactive) in [9]; > 100 µM (inactive) in [10]; > 100 µM (inactive) in [11]; > 100 µM (inactive) in [12]. In addition, the GI50 in assay [13], in assay [14], in assay [15], in assay [16], in [17] and in assay [18] was > 100 µM (inactive) each time. Moreover, the GI50 in [19] and in [20] was > 100 µM (inactive) in each case.
